This passage reports TGI results from PubChem BioAssay (NCI).

Common to all, as to assay: inhibition of tumour cell growth, NCI panel, 48 h
Assay [1] has as its system COLO 205 colon.
Assay [2] concerns SNB-75 CNS.
Assay [3] concerns SK-MEL-2 melanoma.
Assay [4] concerns A549 NSCLC.
Assay [5] has as its system OVCAR-8 ovarian.
Assay [6] deals with SF-268 CNS.
The subject of assay [7] is UO-31 renal.
Assay [8] concerns HT29 colon.
The subject of assay [9] is HCT-116 colon.
The subject of assay [10] is PC-3 prostate.
The test system of assay [11] is OVCAR-3 ovarian.
The subject of assay [12] is SNB-19 CNS.
Assay [13] deals with MCF7 breast.
Assay [14] has as its system BT-549 breast.

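Compound exposure: 48 hours, 5 concentrations, 96-well plates. The concentration for full growth arrest is given as TGI.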

Regarding `CCOC(=O)c1cc(C2CCN(Cc3ccccc3)C2=S)c(C(=O)C=[N+]=[N-])[nH]1` (stereo not given), the TGI in [1] was over 100 µM; in [2], 91.6 µM; in [3] it was 63 µM; in assay [4], over 100 µM; in assay [5], over 100 µM; in assay [6] it was 73.9 µM. The TGI in assay [7] was 57.5 µM; in assay [8], over 100 µM; in assay [9] it was over 100 µM; in assay [10], over 100 µM; in assay [11], 45.1 µM; in assay [12], over 100 µM. The TGI is 40.4 µM in [13] and 67.6 µM in assay [14].

`O=C1NC(=S)NC(=O)C1=C/C=C/c1ccc([N+](=O)[O-])cc1`: the TGI in assay [1] is 33.6 µM; in [2], 35.2 µM; in [3], 30.9 µM; in assay [4], 50.4 µM; in assay [5] it was 47.6 µM; in assay [6], 36.8 µM. For the same compound, the TGI stood at 33.5 µM in [7]; 58.7 µM in assay [8]; 37.2 µM in assay [9]; 32.2 µM in assay [10]; 29.1 µM in assay [11]; 34 µM in [12]. Also, the figures for the TGI in [13] and in [14] were 34.9 µM and 25 µM, respectively.

With `O=C1CC2SC(COCc3ccccc3)(CCN2Cc2ccccc2)C1` (stereo not given), the TGI in assay [1], in [2], in [3], in [4], in [5] and in [6] was over 100 µM throughout. For the same compound, the TGI in assay [7], in assay [8], in [9], in assay [10], in [11] and in assay [12] was over 100 µM throughout. Besides, the TGI in assay [13] was 81.9 µM; in assay [14], over 100 µM.

On to `CCOC(=O)C(Cc1ccc(N(CCCl)CCCl)cc1)NC(=O)CCCN1C(=O)CN=C(c2ccccc2)c2cc(Cl)ccc21` (stereo not given), for which the TGI in assay [1] is 37.8 µM; in assay [2], 51.3 µM; in [3], 29.9 µM; in assay [4] it was over 100 µM; in [5], over 100 µM; in assay [6] it was 71.5 µM. The TGI is 30.8 µM in [7]; over 100 µM in assay [8]; over 100 µM in [9]; over 100 µM in assay [10]; 5.32 µM in assay [11]; over 100 µM in assay [12]. Besides, the TGI in [13] and in assay [14] was over 100 µM throughout.

As for `C1CN2CCNCCN(CCN1)CC2`, the TGI in assay [1], in assay [2], in assay [3], in assay [4], in [5] and in assay [6] was over 100 µM throughout. Besides, the TGI in [7], in assay [8], in assay [9], in [10], in [11] and in assay [12] was over 100 µM in each case. For the same compound, the TGI in assay [13] and in [14] was over 100 µM in each case.

With `COc1cccc(-c2c(-c3ccccc3)[nH]c(C)c2C(=O)ONC(=O)c2ccccc2)c1`, the TGI in assay [1] was determined as 32.6 µM; in assay [2], 18.9 µM; in [3], 23.6 µM; in assay [4], 9.59 µM; in assay [5] it was 19.1 µM; in [6], 22 µM. The TGI was 3.49 µM in assay [7]; over 45.2 µM in [8]; 15 µM in assay [9]; 23.9 µM in assay [10]; 22.8 µM in [11]; 23.8 µM in assay [12]. Also, the TGI stood at 24 µM in assay [13] and 18.7 µM in [14].

With `COC1CC(O[C@H]2CC[C@@]3(C)[C@@H](CC[C@]4(O)[C@@H]3CC[C@]3(C)[C@@H](C(C)=O)[C@H](OC(=O)CC(C)C)[C@@H](OC(=O)c5ccccc5)[C@@]34O)C2)OC(C)C1OC1CC(OC)C(OC2OC(C)C(O)C(OC)C2O)C(C)O1` (stereo not given in full), the TGI in [1] was 12.4 µM; in assay [2], over 25 µM; in assay [3], over 25 µM; in [4] it was over 25 µM; in [5], over 25 µM; in [6], over 25 µM. The TGI in assay [7], in [8], in [9], in assay [10], in assay [11] and in assay [12] was over 25 µM each time. The TGI in assay [13] and in [14] was over 25 µM in each case.

Consider `Cn1c(N=P(c2ccccc2)(c2ccccc2)c2ccccc2)c([N+](=O)[O-])c(=O)n(C)c1=O`, for which the TGI was over 100 µM in assay [1]; 91.8 µM in assay [2]; over 100 µM in [3]; over 100 µM in assay [4]; 75.3 µM in assay [5]; over 100 µM in assay [6]. The TGI in assay [7], in assay [8], in [9], in assay [10], in [11] and in assay [12] was over 100 µM throughout. Also, the TGI in assay [13] and in assay [14] was over 100 µM throughout.

Consider `COc1ccc(/C(=N\Nc2ccccn2)c2ccccn2)cc1`, for which the TGI in [1] turned out to be 12.1 µM; in [2], 8.01 µM; in assay [3] it was 30.2 µM; in [4], 11.1 µM; in assay [5], 11.8 µM; in assay [6] it was 13.1 µM. Further, the TGI was 0.629 µM in assay [7]; 14 µM in [8]; 17.4 µM in assay [9]; over 100 µM in [10]; 19.5 µM in [11]; over 63.9 µM in [12]. Moreover, the figures for the TGI in [13] and in assay [14] were 49.7 µM and over 100 µM, respectively.

Take `Cc1ccc(N2C(N)=C(C#N)C(C#N)(C#N)C2c2ccccc2)cc1` (stereo not given): the TGI is 24 µM in assay [1]; 28 µM in assay [2]; 38.2 µM in assay [3]; 38.2 µM in [4]; 40.2 µM in assay [5]; 65.9 µM in assay [6]. The TGI in [7] is 32 µM; in [8], 13.9 µM; in [9], 14.4 µM; in [10], 44.9 µM; in [11], 27.4 µM; in [12], 34.5 µM. The TGI in [13] stood at 18.8 µM; in assay [14], 23.5 µM.

In the case of `Clc1c2ccccc2nc2c1[nH]c1ccccc12`, the TGI was 11.8 µM in assay [1]; over 100 µM in [2]; over 100 µM in assay [3]; over 100 µM in [4]; over 100 µM in assay [5]; over 100 µM in assay [6]. The TGI in assay [7] was over 100 µM; in assay [8], 34.3 µM; in [9], over 100 µM; in assay [10] it was over 100 µM; in assay [11] it was over 100 µM; in assay [12], over 100 µM. Moreover, the TGI in assay [13] and in assay [14] was over 100 µM in each case.

As to `Cc1nnc(Sc2nc(C#N)c(C#N)nc2Sc2nnc(C)s2)s1`, the TGI in assay [1] was over 53.3 µM; in [2] it was over 82.3 µM; in [3] it was 44.7 µM; in [4], 56.2 µM; in [5], 8.34 µM; in assay [6], 73.2 µM. Also, the TGI in [7] was 23.9 µM; in assay [8], over 23.8 µM; in assay [9] it was over 64.3 µM; in assay [10], 30.7 µM; in assay [11], 25.3 µM; in assay [12], 54.6 µM. Besides, the values for the TGI in assay [13] and in [14] were 25.3 µM and 27.7 µM, respectively.

Turning to `CCCCc1c2c(c(C)c3c1C(=O)OC3)Oc1ccccc1O2`, the TGI in [1] was 7.69 µM; in assay [2], 13.4 µM; in [3], over 33.7 µM; in assay [4] it was over 43.2 µM; in assay [5] it was 35.7 µM; in assay [6] it was over 100 µM. For the same compound, the TGI is over 100 µM in [7]; over 40.9 µM in assay [8]; 27.1 µM in [9]; over 34.8 µM in assay [10]; 1.51 µM in assay [11]; over 75 µM in assay [12]. Besides, the TGI in assay [13] and in assay [14] was over 100 µM throughout.

As for `Cc1ccc(N=C2C(c3ccccc3)=C(SC3=C(c4ccccc4)C(=Nc4ccc(C)cc4)c4ccccc43)c3ccccc32)cc1`, the TGI in [1] is over 100 µM; in assay [2] it was 22.2 µM; in assay [3] it was over 78.7 µM; in [4] it was over 100 µM; in [5], 24.7 µM; in [6], 18.8 µM. In addition, the TGI was 33.3 µM in assay [7]; over 48.9 µM in assay [8]; over 100 µM in assay [9]; over 100 µM in [10]; over 100 µM in assay [11]; 17.1 µM in assay [12]. In addition, the TGI in [13] is over 100 µM; in assay [14], over 62.8 µM.

As to `Cc1cc2nc(N3C(=O)/C(=C/c4ccc(N(C)C)cc4)N=C3c3ccccc3)sc2cc1C`, the TGI in assay [1] is 40.7 µM; in [2] it was 56.8 µM; in assay [3], 65.3 µM; in assay [4], over 100 µM; in [5], over 100 µM; in assay [6], over 100 µM. The TGI in assay [7] is 87.4 µM; in [8], 44.2 µM; in assay [9] it was 43 µM; in assay [10], 43.5 µM; in [11], over 100 µM; in [12], over 100 µM. Besides, the values for the TGI in assay [13] and in assay [14] were 21.3 µM and over 100 µM, respectively.
